Reference: article PMC6365506, “Plasmodium falciparum specific helicase 2 is a dual, bipolar helicase and is crucial for parasite growth” (Scientific Reports, 2019)

What was measured:
PfPSH2 [1] = target: T1, PfPSH2 (Plasmodium falciparum, UniProt A0A1Q1G9G0); experiment: radiolabelled Pi release, TLC; format: biochemical; details: M13mp19 ssDNA or total RNA as stimulator; 1.0 mM MgCl2, pH 8.0, 37 °C; labelled compound ([γ-32P]ATP with 1 mM cold ATP)
T1 construct: gene PSH2; full length, 880 residues, ~105 kDa, His-tagged (pET28a+), expressed in E. coli BL21 codon Plus, Ni-NTA purified
T1 sequence (A0A1Q1G9G0 1-880): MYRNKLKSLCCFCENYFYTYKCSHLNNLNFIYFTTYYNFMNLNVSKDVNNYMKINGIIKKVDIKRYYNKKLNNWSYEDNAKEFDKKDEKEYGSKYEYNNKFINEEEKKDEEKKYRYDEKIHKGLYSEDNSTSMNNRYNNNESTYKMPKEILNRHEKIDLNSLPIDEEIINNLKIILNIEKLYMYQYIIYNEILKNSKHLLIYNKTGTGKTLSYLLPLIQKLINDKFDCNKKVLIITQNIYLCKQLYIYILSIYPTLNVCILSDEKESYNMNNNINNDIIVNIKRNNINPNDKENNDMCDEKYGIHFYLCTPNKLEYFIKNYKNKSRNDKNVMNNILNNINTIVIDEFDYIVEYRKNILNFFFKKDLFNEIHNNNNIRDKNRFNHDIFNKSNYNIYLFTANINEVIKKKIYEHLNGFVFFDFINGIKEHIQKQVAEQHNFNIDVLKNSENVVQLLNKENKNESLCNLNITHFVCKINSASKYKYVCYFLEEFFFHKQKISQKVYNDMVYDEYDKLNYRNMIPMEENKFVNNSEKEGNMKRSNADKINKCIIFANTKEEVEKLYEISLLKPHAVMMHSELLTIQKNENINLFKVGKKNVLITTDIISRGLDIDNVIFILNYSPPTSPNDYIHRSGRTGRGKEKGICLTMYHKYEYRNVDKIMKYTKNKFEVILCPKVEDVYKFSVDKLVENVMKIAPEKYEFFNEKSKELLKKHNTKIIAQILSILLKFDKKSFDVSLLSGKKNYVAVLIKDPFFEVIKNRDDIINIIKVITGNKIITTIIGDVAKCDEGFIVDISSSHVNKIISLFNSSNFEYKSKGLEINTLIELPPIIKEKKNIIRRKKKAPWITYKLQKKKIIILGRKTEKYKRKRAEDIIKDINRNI

PfPSH2 [2] = target: T1, PfPSH2; experiment: DNA helicase unwinding assay, gel autoradiography; format: biochemical; details: 32P-labelled partial duplex DNA; dATP in place of ATP; 1.0 mM MgCl2, pH 8.0, 37 °C; 80 nM protein

SMILES	radiolabelled Pi release, TLC (PfPSH2 [1])	DNA helicase unwinding assay, gel autoradiography (PfPSH2 [2])
Nc1ncnc2c1ncn2[C@@H]1O[C@H](COP(=O)(O)OP(=O)(O)OP(=O)(O)O)[C@@H](O)[C@H]1O [ATP]	PfPSH2 shows concentration-dependent ATPase activity in the presence of DNA	–
Nc1ncnc2c1ncn2[C@H]1C[C@H](O)[C@@H](COP(=O)(O)OP(=O)(O)OP(=O)(O)O)O1 [dATP]	–	PfPSH2 prefers ATP and dATP for unwinding the duplex substrate
